The compounds below were run against T1, Recombinant Human ENPP-2/Autotaxin (Homo sapiens, UniProt Q13822) (assay: LysoPLD activity measurement (autotaxin enzyme inhibition, choline release, TOOS reagent)). Details: LysoPLD inhibitory activity; substrate 14:0 LysoPC; absorbance at 555 nm.
T1 construct: purchased R&D systems 5255-EN
Type: biochemical
Procedure, shortened: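 Autotaxin lysoPLD activity was read as choline released from 14:0 LysoPC, detected by TOOS reagent absorbance. Compound was preincubated 30 min, then substrate diluted to 300 μM was added and the reaction ran 90 minutes at 37° C. Controls contained 1% DMSO.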

First: CN1Cc2cc(-n3c(=O)n(Cc4cccc(C(=O)O)c4)c4ccc(Cl)cc43)ccc2C1=O [Example 116, 3-((5-chloro-3-(2-methyl-1-oxoisoindolin-5-yl)-2-oxo-2,3-dihydro-1H-benzo[d]imidazol-1-yl)methyl)benzoic acid]
Second: CN1Cc2cc(-n3c(=O)n(Cc4cccc(C(=O)O)c4F)c4ccc(Cl)cc43)ccc2C1=O [Example 117, 3-((5-chloro-3-(2-methyl-1-oxoisoindolin-5-yl)-2-oxo-2,3-dihydro-1H-benzo[d]imidazol-1-yl)methyl)-2-fluorobenzoic acid]
The IC50 of the first is higher: 100 to 1000 nM for the first, 10 to 100 nM for the second.

`O=C(O)c1cccc(Cn2c(=O)n(-c3ccc(N4CCC(F)(F)CC4)cc3)c3cc(Cl)ccc32)c1F` [Example 118, 3-((5-chloro-3-(4-(4,4-difluoropiperidin-1-yl)phenyl)-2-oxo-2,3-dihydro-1H-benzo[d]imidazol-1-yl)methyl)-2-fluorobenzoic acid] and `O=C(O)c1cccc(Cn2c(=O)n(-c3ccc(N4CCN(C(=O)C5CCC(F)(F)CC5)CC4)cc3)c3cc(Cl)ccc32)c1F` [Example 143, 3-((5-chloro-3-(4-(4-(4,4-difluorocyclohexane-1-carbonyl)piperazin-1-yl)phenyl)-2-oxo-2,3-dihydro-1H-benzo[d]imidazol-1-yl)methyl)-2-fluorobenzoic acid] fall in the same range of IC50: 10 to 100 nM for the first, 10 to 100 nM for the second.

`O=C(O)c1cccc(Cn2c(=O)n(-c3ccc(N4CCC(F)(F)C4)cc3)c3c(F)c(Cl)ccc32)c1F` [Example 119, 3-((5-chloro-3-(4-(3,3-difluoropyrrolidin-1-yl)phenyl)-4-fluoro-2-oxo-2,3-dihydro-1H-benzo[d]imidazol-1-yl)methyl)-2-fluorobenzoic acid] and `O=C(O)c1cccc(Cn2c(=O)n(-c3ccc(N4CC(O)C4)cc3)c3c(F)c(Cl)ccc32)c1F` [Example 120, 3-((5-chloro-4-fluoro-3-(4-(3-hydroxyazetidin-1-yl)phenyl)-2-oxo-2,3-dihydro-1H-benzo[d]imidazol-1-yl)methyl)-2-fluorobenzoic acid] fall in the same range of IC50: 10 to 100 nM for the first, 10 to 100 nM for the second.

`O=C(O)c1cccc(C2(n3c(=O)n(-c4ccc(C5=CCOCC5)cc4)c4cc(Cl)ccc43)CC2)c1` [Example 121, 3-(1-(5-chloro-3-(4-(3,6-dihydro-2H-pyran-4-yl)phenyl)-2-oxo-2,3-dihydro-1H-benzo[d]imidazol-1-yl)cyclopropyl)benzoic acid] and `O=C(O)c1cccc(C2(n3c(=O)n(-c4ccc(C5=CCOC5)cc4)c4cc(Cl)ccc43)CC2)c1` [Example 124, 3-(1-(5-chloro-3-(4-(2,5-dihydrofuran-3-yl)phenyl)-2-oxo-2,3-dihydro-1H-benzo[d]imidazol-1-yl)cyclopropyl)benzoic acid] cannot be ordered by IC50: < 10 nM for the first, < 10 nM for the second.

`O=C(O)c1cccc(C2(n3c(=O)n(-c4ccc(C5=CCOCC5)cc4)c4cc(Cl)ccc43)CC2)c1F` [Example 122, 3-(1-(5-chloro-3-(4-(3,6-dihydro-2H-pyran-4-yl)phenyl)-2-oxo-2,3-dihydro-1H-benzo[d]imidazol-1-yl)cyclopropyl)-2-fluorobenzoic acid] and `O=C(O)c1cccc(C2(n3c(=O)n(-c4ccc(C5=CCOC5)cc4)c4cc(Cl)ccc43)CC2)c1F` [Example 123, 3-(1-(5-chloro-3-(4-(2,5-dihydrofuran-3-yl)phenyl)-2-oxo-2,3-dihydro-1H-benzo[d]imidazol-1-yl)cyclopropyl)-2-fluorobenzoic acid] cannot be ordered by IC50: < 10 nM for the first, < 10 nM for the second.

Compared with `O=C(O)c1ccc(Cn2c(=O)n(-c3ccc(N4CCOCC4)cc3)c3c(F)c(Cl)ccc32)cc1` [Example 125, 4-((5-chloro-4-fluoro-3-(4-morpholinophenyl)-2-oxo-2,3-dihydro-1H-benzo[d]imidazol-1-yl)methyl)benzoic acid], `CCC(=O)N1CCN(c2ccc(-n3c(=O)n(Cc4cccc(C(=O)O)c4F)c4ccc(Cl)cc43)cc2)CC1` [Example 141, 3-((5-chloro-2-oxo-3-(4-(4-propionylpiperazin-1-yl)phenyl)-2,3-dihydro-1H-benzo[d]imidazol-1-yl)methyl)-2-fluorobenzoic acid] is lower in IC50: 100 to 1000 nM for the first, 10 to 100 nM for the second. The second is the more potent here.

`O=C(O)c1cccc(C2(n3c(=O)n(-c4ccc(C(=O)N5CCOCC5)cc4)c4cc(Cl)ccc43)CC2)c1` [Example 126, 3-(1-(5-chloro-3-(4-(morpholine-4-carbonyl)phenyl)-2-oxo-2,3-dihydro-1H-benzo[d]imidazol-1-yl)cyclopropyl)benzoic acid] and `O=C(O)c1cccc(C2(n3c(=O)n(-c4ccc(C(=O)N5CC6(COC6)C5)cc4)c4cc(Cl)ccc43)CC2)c1` [Example 137, 3-(1-(3-(4-(2-oxa-6-azaspiro[3.3]heptane-6-carbonyl)phenyl)-5-chloro-2-oxo-2,3-dihydro-1H-benzo[d]imidazol-1-yl)cyclopropyl)benzoic acid] cannot be ordered by IC50: < 10 nM for the first, < 10 nM for the second.

`C[C@H]1COCCN1C(=O)c1ccc(-n2c(=O)n(C3(c4cccc(C(=O)O)c4)CC3)c3ccc(Cl)cc32)cc1` [Example 127, (S)-3-(1-(5-chloro-3-(4-(3-methylmorpholine-4-carbonyl)phenyl)-2-oxo-2,3-dihydro-1H-benzo[d]imidazol-1-yl)cyclopropyl)benzoic acid] and `C[C@H]1COCCN1C(=O)c1ccc(-n2c(=O)n(C3(c4cccc(C(=O)O)c4F)CC3)c3ccc(Cl)cc32)cc1` [Example 136, (S)-3-(1-(5-chloro-3-(4-(3-methylmorpholine-4-carbonyl)phenyl)-2-oxo-2,3-dihydro-1H-benzo[d]imidazol-1-yl)cyclopropyl)-2-fluorobenzoic acid] cannot be ordered by IC50: < 10 nM for the first, < 10 nM for the second.

`O=C(O)c1cccc(C2(n3c(=O)n(-c4ccc(C(=O)N5CC(O)C5)cc4)c4cc(Cl)ccc43)CC2)c1` [Example 128, 3-(1-(5-chloro-3-(4-(3-hydroxyazetidine-1-carbonyl)phenyl)-2-oxo-2,3-dihydro-1H-benzo[d]imidazol-1-yl)cyclopropyl)benzoic acid] and `O=C(O)c1cccc(C2(n3c(=O)n(-c4ccc(C(=O)N5CC(F)(F)C5)cc4)c4cc(Cl)ccc43)CC2)c1` [Example 129, 3-(1-(5-chloro-3-(4-(3,3-difluoroazetidine-1-carbonyl)phenyl)-2-oxo-2,3-dihydro-1H-benzo[d]imidazol-1-yl)cyclopropyl)benzoic acid] cannot be ordered by IC50: < 10 nM for the first, < 10 nM for the second.

`O=C(O)c1cccc(C2(n3c(=O)n(-c4ccc(C(=O)N5CCC(F)(F)C5)cc4)c4cc(Cl)ccc43)CC2)c1` [Example 130, 3-(1-(5-chloro-3-(4-(3,3-difluoropyrrolidine-1-carbonyl)phenyl)-2-oxo-2,3-dihydro-1H-benzo[d]imidazol-1-yl)cyclopropyl)benzoic acid] and `O=C(O)c1cccc(C2(n3c(=O)n(-c4ccc(C(=O)N5CCC(F)(F)CC5)cc4)c4cc(Cl)ccc43)CC2)c1` [Example 131, 3-(1-(5-chloro-3-(4-(4,4-difluoropiperidine-1-carbonyl)phenyl)-2-oxo-2,3-dihydro-1H-benzo[d]imidazol-1-yl)cyclopropyl)benzoic acid] cannot be ordered by IC50: < 10 nM for the first, < 10 nM for the second.

`O=C(O)c1cccc(C2(n3c(=O)n(-c4ccc(C(=O)N5CCC(F)(F)C5)cc4)c4cc(Cl)ccc43)CC2)c1F` [Example 132, 3-(1-(5-chloro-3-(4-(3,3-difluoropyrrolidine-1-carbonyl)phenyl)-2-oxo-2,3-dihydro-1H-benzo[d]imidazol-1-yl)cyclopropyl)-2-fluorobenzoic acid] and `O=C(O)c1cccc(C2(n3c(=O)n(-c4ccc(C(=O)N5CCC(F)(F)CC5)cc4)c4cc(Cl)ccc43)CC2)c1F` [Example 133, 3-(1-(5-chloro-3-(4-(4,4-difluoropiperidine-1-carbonyl)phenyl)-2-oxo-2,3-dihydro-1H-benzo[d]imidazol-1-yl)cyclopropyl)-2-fluorobenzoic acid] cannot be ordered by IC50: < 10 nM for the first, < 10 nM for the second.

`O=C(O)c1cccc(C2(n3c(=O)n(-c4ccc(C(=O)N5CC(O)C5)cc4)c4cc(Cl)ccc43)CC2)c1F` [Example 134, 3-(1-(5-chloro-3-(4-(3-hydroxyazetidine-1-carbonyl)phenyl)-2-oxo-2,3-dihydro-1H-benzo[d]imidazol-1-yl)cyclopropyl)-2-fluorobenzoic acid] and `O=C(O)c1cccc(C2(n3c(=O)n(-c4ccc(C(=O)N5CC6(COC6)C5)cc4)c4cc(Cl)ccc43)CC2)c1F` [Example 135, 3-(1-(3-(4-(2-oxa-6-azaspiro[3.3]heptane-6-carbonyl)phenyl)-5-chloro-2-oxo-2,3-dihydro-1H-benzo[d]imidazol-1-yl)cyclopropyl)-2-fluorobenzoic acid] cannot be ordered by IC50: < 10 nM for the first, < 10 nM for the second.

`O=C(O)c1cccc(C2(n3c(=O)n(-c4ccc(-c5nnc(C6CCC(F)(F)CC6)o5)cc4)c4cc(Cl)ccc43)CC2)c1` [Example 138, 3-(1-(5-chloro-3-(4-(5-(4,4-difluorocyclohexyl)-1,3,4-oxadiazol-2-yl)phenyl)-2-oxo-2,3-dihydro-1H-benzo[d]imidazol-1-yl)cyclopropyl)benzoic acid] and `CN(C)C(=O)Cc1ccc(-n2c(=O)n(C3(c4cccc(C(=O)O)c4)CC3)c3ccc(Cl)cc32)cc1` [Example 139, 3-(1-(5-chloro-3-(4-(2-(dimethylamino)-2-oxoethyl)phenyl)-2-oxo-2,3-dihydro-1H-benzo[d]imidazol-1-yl)cyclopropyl)benzoic acid] cannot be ordered by IC50: < 10 nM for the first, < 10 nM for the second.

`O=C(O)c1cccc(Cn2c(=O)n(-c3ccc(N4CCN(C(=O)C5CC5)CC4)cc3)c3cc(Cl)ccc32)c1F` [Example 140, 3-((5-chloro-3-(4-(4-(cyclopropanecarbonyl)piperazin-1-yl)phenyl)-2-oxo-2,3-dihydro-1H-benzo[d]imidazol-1-yl)methyl)-2-fluorobenzoic acid] and `O=C(O)c1cccc(Cn2c(=O)n(-c3ccc(N4CCN(C(=O)C5CCC5)CC4)cc3)c3cc(Cl)ccc32)c1F` [Example 142, 3-((5-chloro-3-(4-(4-(cyclobutanecarbonyl)piperazin-1-yl)phenyl)-2-oxo-2,3-dihydro-1H-benzo[d]imidazol-1-yl)methyl)-2-fluorobenzoic acid] fall in the same range of IC50: 10 to 100 nM for the first, 10 to 100 nM for the second.

— US20260265265A1, “NOVEL BENZIMIDAZOLONE DERIVATIVE COMPOUND AS AUTOTAXIN INHIBITOR” (LG CHEM, LTD., priority 2023, published 2026)
